Measurements reported in the supplement of paper PMC6045584.
± gives the standard deviation of the averaged measurements.

Assays:
[1] = compound: CS(=O)(=O)c1ccc(C(=O)Nc2ccc(Cl)c(-c3ccccn3)c2)c(Cl)c1 [VISMODEGIB]; assay: surviving fraction relative to DMSO-only wells; higher = less growth inhibition; conditions: exposure time: 5 days
Summary of the method: (§1)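 Tumour cell lines were grown to log phase and seeded at 250–500 cells per well in 384-well plates. They were exposed continuously to inhibitors at 0.5, 1, 5, 10, 50, 100, 500 and 1000 nM for five days, beginning 24 hours after seeding. Surviving fraction is CellTiter-Glo luminescence normalised to the median of DMSO-only wells.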

[2] = compound: CC[C@@H](C(=O)[C@@H](C)[C@@H](O)[C@H](C)[C@@H]1O[C@@H]([C@@H](CC)C(=O)O)CC[C@@H]1C)[C@H]1O[C@]2(C=C[C@@H](O)[C@]3(CC[C@@](C)([C@H]4CC[C@](O)(CC)[C@H](C)O4)O3)O2)[C@H](C)C[C@@H]1C [SALINOMYCIN]; assay: as above; conditions: exposure time: 5 days
Summary of the method: as §1

Row | Test System | surviving fraction ([1]; 0.5 nM) | surviving fraction ([1]; 1 nM) | surviving fraction ([1]; 5 nM) | surviving fraction ([1]; 10 nM) | surviving fraction ([1]; 50 nM) | surviving fraction ([1]; 100 nM) | surviving fraction ([1]; 500 nM) | surviving fraction ([1]; 1000 nM) | surviving fraction ([2]; 0.5 nM) | surviving fraction ([2]; 1 nM) | surviving fraction ([2]; 5 nM) | surviving fraction ([2]; 10 nM) | surviving fraction ([2]; 50 nM) | surviving fraction ([2]; 100 nM) | surviving fraction ([2]; 500 nM) | surviving fraction ([2]; 1000 nM)
1 | T47D BREAST | 0.993 ± 0.034 | 0.965 ± 0.049 | 1.01 ± 0.025 | 0.988 ± 0.012 | 0.99 ± 0.035 | 1.07 ± 0.015 | 0.983 ± 0.013 | 0.989 ± 0.025 | 1 ± 0.034 | 1.017 ± 0.0096 | 0.983 ± 0.04 | 0.898 ± 0.047 | 1.07 ± 0.015 | 1.07 ± 0.046 | 0.891 ± 0.041 | 0.631 ± 0.018
2 | CHLA90 AUTONOMIC GANGLIA | 0.923 ± 0.084 | 0.949 ± 0.06 | 0.962 ± 0.056 | 1.01 ± 0.062 | 0.914 ± 0.079 | 0.925 ± 0.013 | 0.92 ± 0.028 | 0.953 ± 0.041 | 0.992 ± 0.017 | 0.9167 ± 0.0091 | 0.926 ± 0.014 | 0.396 ± 0.01 | 0.949 ± 0.069 | 0.877 ± 0.048 | 0.169 ± 0.028 | 0.0267 ± 0.00058
3 | SCC47 HEADNECK | 0.968 ± 0.064 | 1 ± 0.07 | 0.992 ± 0.044 | 1.04 ± 0.07 | 0.892 ± 0.026 | 0.963 ± 0.026 | 0.9167 ± 0.004 | 0.954 ± 0.016 | 0.842 ± 0.064 | 0.792 ± 0.026 | 0.977 ± 0.074 | 0.992 ± 0.044 | 1.06 ± 0.085 | 1 ± 0.12 | 0.561 ± 0.068 | 0.489 ± 0.023
4 | CASKI CERVIX | 0.939 ± 0.035 | 0.979 ± 0.026 | 0.958 ± 0.026 | 0.973 ± 0.046 | 0.828 ± 0.049 | 0.893 ± 0.058 | 0.876 ± 0.075 | 0.898 ± 0.084 | 0.93 ± 0.055 | 0.921 ± 0.039 | 0.868 ± 0.037 | 0.911 ± 0.038 | 0.703 ± 0.0027 | 0.583 ± 0.028 | 0.3273 ± 0.0031 | 0.289 ± 0.024
5 | HU09 BONE | 1.03 ± 0.079 | 0.973 ± 0.088 | 1.07 ± 0.14 | 1.08 ± 0.17 | 0.913 ± 0.04 | 0.898 ± 0.066 | 0.802 ± 0.036 | 0.886 ± 0.08 | 1.06 ± 0.035 | 1.01 ± 0.019 | 1.12 ± 0.14 | 1.03 ± 0.091 | 1.04 ± 0.12 | 0.897 ± 0.077 | 0.476 ± 0.036 | 0.271 ± 0.0068
6 | SAOS2 BONE | 1.11 ± 0.052 | 1.097 ± 0.0075 | 1.08 ± 0.059 | 1.099 ± 0.0081 | 0.834 ± 0.082 | 0.954 ± 0.052 | 0.85 ± 0.036 | 0.916 ± 0.055 | 0.98 ± 0.038 | 0.902 ± 0.077 | 0.946 ± 0.073 | 0.8803 ± 0.0075 | 1.06 ± 0.097 | 1.11 ± 0.05 | 0.763 ± 0.016 | 0.488 ± 0.018
7 | SUM149 BREAST | 0.871 ± 0.11 | 0.856 ± 0.042 | 0.968 ± 0.053 | 0.877 ± 0.0066 | 0.904 ± 0.1 | 0.887 ± 0.014 | 0.945 ± 0.088 | 0.895 ± 0.077 | 0.981 ± 0.06 | 0.972 ± 0.14 | 1.02 ± 0.13 | 0.392 ± 0.03 | 1.06 ± 0.092 | 0.836 ± 0.052 | 0.424 ± 0.042 | 0.356 ± 0.01
8 | SYO1 SYNOVIAL | 0.953 ± 0.052 | 0.978 ± 0.049 | 0.992 ± 0.014 | 0.994 ± 0.054 | 0.879 ± 0.042 | 0.882 ± 0.041 | 0.884 ± 0.045 | 0.898 ± 0.048 | 0.905 ± 0.038 | 0.832 ± 0.089 | 0.876 ± 0.056 | 0.475 ± 0.14 | 0.949 ± 0.04 | 0.804 ± 0.1 | 0.293 ± 0.02 | 0.117 ± 0.028
9 | DU4475 BREAST | 0.969 ± 0.25 | 1.1 ± 0.28 | 1 ± 0.1 | 0.895 ± 0.29 | 1.1 ± 0.41 | 0.876 ± 0.17 | 0.899 ± 0.22 | 0.977 ± 0.32 | 0.949 ± 0.23 | 0.893 ± 0.28 | 0.857 ± 0.28 | 0.9 ± 0.33 | 0.793 ± 0.27 | 0.665 ± 0.32 | 0.293 ± 0.18 | 0.17 ± 0.078
10 | JIMT1 BREAST | 0.906 ± 0.044 | 0.89 ± 0.016 | 0.9112 ± 0.0064 | 0.948 ± 0.041 | 0.849 ± 0.035 | 0.972 ± 0.021 | 0.881 ± 0.053 | 0.952 ± 0.057 | 0.96 ± 0.014 | 0.977 ± 0.021 | 0.979 ± 0.021 | 0.999 ± 0.021 | 0.988 ± 0.033 | 0.95 ± 0.013 | 0.51 ± 0.024 | 0.356 ± 0.02
